Read-outs that look alike come from different tables or passages of the source.

The text below walks through data of patent US9181290B2, “Inhibition of biofilm formation by 1,2,3,4,6-penta-O-galloyl-D-glucopyranose” (CHANG GUNG UNIVERSITY, priority 2011, dated 2015).

In one experiment the test system is S. aureus. The experiment can be described thus: Biofilm formation after treatment with other strong antioxidants (data not shown). The experiment is classed as cell-based, Staphylococcus aureus.
Experiment [1] deals with S. aureus SA113 (ATCC 35556). The experiment is described as follows: Bacterial growth (A578) and biofilm formation (crystal violet, A595) in 96-well polystyrene microtiter plates. The following applies: for IC50: Staphylococcus aureus, read-out: IB50 (concentration that inhibited 50% biofilm formation); for Cell Growth (%): growth compared to untreated control at the concentration of IB50. The experiment is classed as cell-based, Staphylococcus aureus. How it is done: An overnight bacterial culture was 200-fold diluted with TSBg, and a 200 μL aliquot of the diluted culture was seeded into each well of 96-well polystyrene microtiter plates and incubated at 37° C. for a designated period of time. Cell growth was determined by measuring the absorbance at 578 nm (A578) with a microtiter plate reader (SpectraMax 340, Molecular Devices). After washing with PBS twice to remove suspended cells, the wells were stained with 0.1% (w/v) crystal violet in 10% ethanol and then treated with 30% acetic acid in dH2O, followed by detecting the absorbance at 595 nm (A595) with the microtiter plate reader to quantify the amount of biofilm formed on polystyrene surface.
An overnight culture of S. aureus SA113 was 200-fold diluted with TSBg, and a 200 μL aliquot of the diluted culture was seeded into each well of 96-well microtiter plates. Compounds purified from medicinal plants were added into each well at a designated concentration up to […]. At 6 hours after seeding, the amounts of biofilms formed in the wells were determined by crystal violet staining as described above. Cells treated with either distilled water or DMSO were used as a control. The amount of biofilm formation by the control group was set as 100%. Each experiment was repeated at least three times, with n=6 for each sample tested. The concentrations of compounds that inhibited 50% biofilm formation (IB50) were calculated based on logistic regression analysis results. Besides, the biofilm formation inhibition rate of a PGG-treated group was calculated using the following equation (1). Biofilm formation inhibition rate(%)=[(A−B)/A]×100 (1) wherein:
In the wells of 96-well microtiter plates, S. aureus SA113 cells were cultured in TSBg broth in the presence of either β-PGG or α-PGG at different amounts (0, 1 and 10 μM). After incubation at 37° C. for 6 hrs, the cell density was determined by measuring the absorbance at 578 nm (A578), and the amounts of biofilm were quantified by crystal violet staining, with the amount of biofilm formed by untreated bacterial cells being set as 100%. Each experiment was repeated three times, with n=6 for each sample tested.
To determine the effect(s) of (β-PGG upon bacterial growth and biofilm formation, β-PGG in various amounts (final concentration: 0, 1.56, 3.13, 6.25, 12.5, 25 and 50 μM) was added into the culture of S. aureus SA113 during seeding into the wells of polystyrene microtiter plates, followed by incubation at 37° C. for 6 hrs or 24 hrs. Cell growth was determined by measuring the absorbance at 578 nm, and the amount of biofilm formed on polystyrene surface was determined at 595 nm after crystal violet staining. In addition to polystyrene surface, the effect of β-PGG in inhibiting biofilm formation on polycarbonate surface was also examined according to the procedures as described in the preceding section entitled “Materials and methods.”

[2] abbreviates: ATCC35556, 6 hours, logistic regression.

Regarding `O=C1O[C@H]([C@@H](O)CO)C(O)=C1O` [ascorbic acid], the “influence on biofilm formation” value in the experiment with S. aureus is “does not influence biofilm formation”.
As for `O=C1C=CC(=O)N1c1ccccc1` [NPM, N-phenyl maleimide, reference compound], the IC50 in experiment [1] (setting [2]) was determined as 41.9 µM. The “Cell Growth (%)” value in experiment [1] is 66%.
With (−)-epigallocatechin gallate, in the experiment on S. aureus, the “influence on biofilm formation” value is on record as “does not influence biofilm formation”.
`O=C(OC[C@H]1O[C@H](OC(=O)c2cc(O)c(O)c(O)c2)[C@H](OC(=O)c2cc(O)c(O)c(O)c2)[C@@H](OC(=O)c2cc(O)c(O)c(O)c2)[C@@H]1OC(=O)c1cc(O)c(O)c(O)c1)c1cc(O)c(O)c(O)c1` [α-PGG, 1,2,3,4,6-Penta-O-galloyl-α-D-glucopyranose]: the “viability of S. aureus SA113 cells (A578)” value in experiment [1] (1 μM and 10 μM, 6 hour incubation (anomer comparison)) is “did not affect the viability”. In addition, the “reduction of biofilm formation” value stood at 13% in experiment [1] (1 μM, 6 hour incubation (anomer comparison)) and 65% in experiment [1] (10 μM, 6 hour incubation (anomer comparison)).
For `CC(=O)N[C@@H](CS)C(=O)O` [NAC, N-acetylcysteine, reference compound], the IC50 in experiment [1] (setting [2]) is 6380 µM. Also, the “Cell Growth (%)” value in experiment [1] is reported as 88%.
With `NC(=O)CI` [IDA, Iodoacetamide, reference compound], the IC50 in experiment [1] (ATCC35556, 6 h) was determined as 120 µM. For the same compound, the “Cell Growth (%)” value in experiment [1] was 50%.
